Source: PubChem BioAssay AID1996
In brackets after ≈: the same amount, converted by molar mass.

conditions: buffer; pH 7.4; 200.0 µM

| Structure (SMILES) | solubility kinetic [µg/mL] |
| --- | --- |
| Cc1cc(C)c2nc(N3CCOCC3)c(C#N)cc2c1 | 0.2 (≈ 0.748 µM) |
| CCCc1nnc(NC(=O)CCC(=O)N2CCCCC2)s1 | > 46.6 |
| CC(OC(=O)C1=COCCO1)C(=O)NC1(C#N)CCCCC1 (stereo not given) | 45.7 (≈ 148 µM) |
| CC(=O)Nc1ccccc1S(=O)(=O)CC1CC1(Cl)Cl (stereo not given) | > 48.3 |
| CCN(CC)CCCNCC(=O)Nc1ccc2c(c1)CCC2 | 24.3 (≈ 80.1 µM) |
| O=C(CSc1ccccn1)Nc1ccc2c(c1)OCO2 | > 43.2 |
| NS(=O)(=O)c1ccc(NC(=O)COC(=O)Cn2cnc3ccccc3c2=O)cc1 | 18 (≈ 43.2 µM) |
| Nc1c(C(=O)Nc2ccccc2)sc2ncc([N+](=O)[O-])cc12 | < 0.2 |
| Cc1ccc(OCc2nc3ccccc3n2C)cc1 | 5.7 (≈ 22.6 µM) |
| Cc1cc(/C(N)=N/OC(=O)c2ccc(Cl)cc2)no1 | 1.6 (≈ 5.72 µM) |
| COc1ccc(-c2cc(C(=O)OCC(=O)N3CCCCC3)c3ccccc3n2)cc1OC | 13.8 (≈ 31.8 µM) |
| N#Cc1c(F)cccc1N1CCN(Cc2ccc3c(c2)OCO3)CC1 | 14.6 (≈ 43 µM) |
| COc1ccccc1Oc1nc(-c2cccnc2)nc2ccccc12 | 2.1 (≈ 6.38 µM) |
| O=C(Nc1ccccc1)O/N=C1/CCCc2occc21 | 16.6 (≈ 61.4 µM) |
| CCOc1ccc(C(=O)NC2CCCCCCC2)cc1 | 2.5 (≈ 9.08 µM) |
| COc1ccc(CNC(=O)C2CCN(S(C)(=O)=O)CC2)cc1 | 45.2 (≈ 138 µM) |
| NC(=O)c1ccccc1NC(=O)Cc1cccs1 | 38.3 (≈ 147 µM) |
| CCC(=O)Nc1ccc(CCC(=O)N2CCCC2)cc1 | 40 (≈ 146 µM) |
| O=C(NC(=S)N1CCN(c2ccc(O)cc2)CC1)c1ccco1 | > 49.7 |
| Cc1nc2ccsc2c(=O)n1-c1cccc(Cl)c1 | > 41.5 |
| COc1ccc(C(=O)/C=C/Nc2ccccn2)c(OC)c1 | 4.2 (≈ 14.8 µM) |
| COc1cc(-c2csc(NC3CCCCC3)n2)cc(OC)c1OC | 6.6 (≈ 18.9 µM) |
| CC(=O)N1CCN(c2ccc(NC(=O)c3ccc(Cl)cc3)cc2)CC1 | 1 (≈ 2.79 µM) |
| COc1ccc(-c2noc(CN(C)C3CCOCC3)n2)cc1 | > 45.5 |

| Structure (SMILES) | solubility kinetic [µg/mL] |
| --- | --- |
| CN(CC(=O)Nc1ccc(F)c(F)c1F)C(=O)/C=C/c1ccco1 | > 50.7 |
| Cc1ccc(C(=O)N2CCc3ccccc32)cc1[N+](=O)[O-] | < 0.3 |
| Cc1ccc(-c2nc(CN(C)C3CCOC3)c(C)o2)s1 (stereo not given) | > 43.9 |
| CCN1CCc2nc3ccccc3c(C(=O)Nc3ccc(F)cc3)c2C1 | 8.3 (≈ 23.8 µM) |
| Cc1cccc(NC(=O)CNC(=O)c2ccccc2Cl)n1 | > 45.6 |
| O=[N+]([O-])/C=C\c1ccc(N2CCOCC2)cc1 | 16.5 (≈ 70.4 µM) |
| Cc1ccc(C(=O)O)cc1N1CCCC1=O | > 32.9 |
| CCN(CC)C(=O)Cn1c(=O)oc2ccccc21 | > 37.2 |
| N#C/C(=C\Nc1ccc(F)c(Cl)c1)C(=O)C1CC1 | 1.7 (≈ 6.42 µM) |
| NS(=O)(=O)c1ccc(NNC(=O)c2ccc(Br)o2)c([N+](=O)[O-])c1 | > 60.8 |
| COc1ccc(OCCC(=O)OCC(=O)NCCc2ccccc2)cc1 | 52.8 (≈ 148 µM) |
| Cc1cc(NC(=O)c2cccnc2)ccc1Br | 40.2 (≈ 138 µM) |
| CCOc1ccc2[nH]c(C)c(CN3CCCCCC3)c(=O)c2c1 | > 47.2 |
| CN(C)C(=O)Oc1ccc2c(c1)O/C(=C\c1ccc(Cl)cc1)C2=O | 0.9 (≈ 2.62 µM) |
| Cc1ccc2[nH]c(=O)c(-c3noc(CC(C)C)n3)cc2c1 | 5.1 (≈ 18 µM) |
| CC(C)C(NC(=O)CCN1C(=O)c2ccccc2C1=O)c1ccccc1 (stereo not given) | 18.3 (≈ 52.2 µM) |
| Cc1ccccc1NC(=O)CSC(=O)c1ccccc1 | 12.5 (≈ 43.8 µM) |
| CC(CCc1ccccc1)NCC(O)c1cccc([N+](=O)[O-])c1.Cl (stereo not given) | > 52.6 |
| O=C(O)c1ccc(OCCN2CCCC2=O)cc1 | 27.6 (≈ 111 µM) |
| O=C(O)C1C2CCC(C2)C1C(=O)N1CCCC1 (stereo not given) | > 35.6 |
| Cc1noc(C)c1NC(=O)N1CCN(Cc2ccccc2)CC1 | > 47.2 |
| COc1ccc(CNC(=S)Nc2ccccc2)cc1Cl | 31.7 (≈ 103 µM) |
| COc1ccccc1C(=O)NCCC(=O)Nc1ncccc1O | > 47.3 |
| Cc1ccc(S(=O)(=O)CCC(=O)NC2CCCCC2)cc1 | > 46.4 |

| Structure (SMILES) | solubility kinetic [µg/mL] |
| --- | --- |
| CCCCOc1ccc(Cn2c(=O)oc3ccccc32)cc1 | < 0.6 |
| CCSc1nc2cc(S(=O)(=O)N3CCOCC3)ccc2o1 | > 49.3 |
| COc1ccc(NC(=O)CCCc2ccccc2)c(OC)c1 | 36.4 (≈ 122 µM) |
| O=C(NCC(=O)N1CCCC1)c1ccccc1F | > 37.5 |
| O=S(=O)(Nc1ccc2c(c1)OCO2)c1ccc(F)c(F)c1 | > 47 |
| Cc1ccc(S(=O)(=O)N(C)C)cc1NC(=O)C1CCCCC1 | > 48.7 |
| CC1C(=O)C(C)C(c2ccc(Cl)cc2)NC1c1ccc(Cl)cc1.Cl (stereo not given) | < 0.8 |
| Cc1cc2c(sc3ccccc32)c(C)n1.Cl | 3.7 |
| CC1CC1C(=O)OCC(=O)NC(=O)c1ccc(C(C)(C)C)cc1 (stereo not given) | 7.5 (≈ 23.6 µM) |
| O=[N+]([O-])c1cccc(CN2CCN(c3cccc4[nH]ccc34)CC2)c1 | 44 (≈ 131 µM) |
| COC(=O)c1sccc1NC(=O)c1ccccc1Br | 2.3 (≈ 6.76 µM) |
| COc1cc(OC)cc(C(=O)O/N=C(\N)c2cccc(C)c2)c1 | 6.2 (≈ 19.7 µM) |
| O=C(/C=C/c1ccccc1)N(Cc1cccs1)C1CCS(=O)(=O)C1 (stereo not given) | > 54.2 |
| C[N+]12CCCCC1[C@@H](CO)CCC2.[Br-] (stereo not given in full) | 39.1 |
| CC(C)c1ccc(NC(=O)Nc2cnccn2)cc1 | 3.9 (≈ 15.2 µM) |
| Cc1ccc(CONC(=O)c2ccccc2Cl)cc1 | > 41.4 |
| Cc1cnc(-n2c(=S)[nH]c3ccccc3c2=O)s1 | > 41.3 |
| CC(C)[C@H](NC(=O)c1ccccc1F)C(=O)OCC(=O)NC1CC1 | 34.3 (≈ 102 µM) |
| CSc1ncccc1C(=O)Nc1cc(C)ccn1 | > 38.9 |
| Cc1cc(C)c2nc(SCC(=O)Nc3cc(C)on3)c(C)cc2c1 | 0.3 (≈ 0.879 µM) |
| CCOC(=O)C1=C(C)NC(C)=C(C(=O)OCC)C1c1cccc(C)n1 | 5.1 (≈ 14.8 µM) |
| O=C(NCc1ccccc1)c1nc[nH]c1C(=O)NCc1ccccc1 | 1.1 (≈ 3.29 µM) |
| O=C(CSc1nc2ccccc2s1)NC1CCCC1 | 38.6 (≈ 132 µM) |
| COCC(C)n1c(SCC(=O)Nc2c(C)n(C)n(-c3ccccc3)c2=O)nc2ccccc2c1=O (stereo not given) | > 74 |

| Structure (SMILES) | solubility kinetic [µg/mL] |
| --- | --- |
| O=C1CC(c2ccccc2F)c2c(c3ccccc3[nH]c2=O)O1 (stereo not given) | 11.4 (≈ 36.9 µM) |
| CCOC(=O)c1c(C)[nH]c(C)c1S(=O)(=O)N1CCCCC1 | > 47.2 |
| COc1ccc(N2CCN(C(=O)c3cccc(S(=O)(=O)N4CCc5ccccc54)c3)CC2)cc1 | 7.1 (≈ 14.9 µM) |
| CSc1ncccc1C(=O)OCC(=O)Nc1cccc(S(=O)(=O)N2CCOCC2)c1 | 34.7 (≈ 76.9 µM) |
| CCNc1nc2c(c(=O)[nH]c(=O)n2C)n1CCCc1ccccc1 | 20.8 (≈ 63.5 µM) |
| CC1Cn2c(nc3sc4c(c3c2=O)CC(C)(C)OC4)N1CCO (stereo not given) | > 50.3 |
| CN1CCN(c2nc(-c3ccc(Cl)c(Cl)c3)nc3ccccc23)CC1 | 0.4 (≈ 1.07 µM) |
| COc1ccc(NC(=O)COC(=O)Cc2ccsc2)c(OC)c1 | 50.1 (≈ 149 µM) |
| CC(=O)N1CCN(C2=NC(=O)/C(=C\c3cccs3)S2)CC1 | 38.7 (≈ 120 µM) |
| COc1ccc(CCCc2nc3ccccc3[nH]2)cc1 | 37.4 (≈ 140 µM) |
| Cc1ccc(S(=O)(=O)N2CCN(c3ccccc3)CC2)s1 | 2.3 (≈ 7.13 µM) |
| CCN1CCN(Cc2cc3c(cc2[N+](=O)[O-])OCO3)CC1 | 41.1 (≈ 140 µM) |
| Cl.Clc1ccc(CNCCCSc2ncccn2)cc1 | > 49.5 |
| COCCN1C(=O)CS/C1=C(/C#N)C(=O)NCc1ccco1 | 41.4 (≈ 129 µM) |
| CC1CCN(C(=O)CS(=O)(=O)Cc2ccccc2)CC1 | 42.3 (≈ 143 µM) |
| O=C(Cn1ccc(=O)[nH]c1=O)NCCO | > 32 |
| COc1ccc(NC(=O)C2CCCC2)cc1 | 30.3 (≈ 138 µM) |
| CCOc1ccccc1OCC(=O)Nc1cc(C)on1 | > 41.4 |
| N#CC(=C=[N-])/C=C(\C(=O)c1ccccc1)[n+]1ccccc1 | > 41 |
| CN1CCN(c2nc3ccccc3nc2NS(=O)(=O)c2ccc(Br)cc2)CC1 | > 69.4 |
| O=C(NCCCNC(=O)c1ccccn1)c1ccc(F)cc1 | > 45.2 |
| Cc1cc(C)cc(C(=O)Nc2nc3ccccc3[nH]2)c1 | 1.4 (≈ 5.28 µM) |
| Cc1noc(C)c1C(=O)N(CC(C)C)c1nc2ccccc2s1 | 1.2 (≈ 3.64 µM) |
| COc1cccc(NC(=O)c2cc(-c3ccco3)nc3ccccc23)c1 | < 0.4 |

| Structure (SMILES) | solubility kinetic [µg/mL] |
| --- | --- |
| CC(C(=O)NCC1CCCCC1)N1CCc2ccccc2C1 (stereo not given) | 41.9 (≈ 139 µM) |
| CCCNC(=O)CSc1nc(Cc2ccccc2)nc2ccccc12 | 8.2 (≈ 23.3 µM) |
| CN(C)C(=O)COc1ccc(C(=O)/C=C/c2cccnc2)cc1 | 41.6 (≈ 134 µM) |
| Cl.NC(Cc1nc2ccccc2[nH]1)c1ccc(Cl)cc1 (stereo not given) | 37.7 |
| NC(=O)C1CCN(CC(=O)NC(=O)NC2CCCC2)CC1 | > 44.5 |
| CCC(=O)NN1CCN(c2ccncc2S(=O)(=O)N2CCCCC2)CC1 | > 57.2 |
| CCCc1cc(=O)[nH]c(SCC(=O)Nc2cc(S(=O)(=O)N(CC)c3ccccc3)ccc2Cl)n1 | 9.8 (≈ 18.8 µM) |
| Cc1ccc(NC(=O)NCCN2CCCCC2)cc1C | 37.4 (≈ 136 µM) |
| Cc1ccc(S(=O)(=O)NCCSc2ncccn2)cc1 | > 46.4 |
| c1ccc(CNc2ncnc3sccc23)cc1 | 31.9 (≈ 132 µM) |
| COc1ccccc1CNC(=O)C(CCSC)NC(=O)c1cccc(S(=O)(=O)N2CCOCC2)c1 (stereo not given) | 3.4 (≈ 6.52 µM) |
| O=C(COc1ccccc1Cl)Nc1ccc2c(c1)OCO2 | 1.2 (≈ 3.93 µM) |
| CCCCNC(=S)Nc1ccccc1Cc1ccccc1 | 32.5 (≈ 109 µM) |
| Cc1cc(S(=O)(=O)N2CCCCC2)c(C)s1 | > 38.9 |
| Fc1cccc(-c2csc(-c3ccno3)n2)c1 | 3.6 (≈ 14.6 µM) |
| O=C(NCCc1ccccc1)C1COc2ccccc2O1 (stereo not given) | > 42.5 |
| Cc1cc(N/C=C/C(=O)c2cccs2)ccc1F | 1.7 (≈ 6.51 µM) |
| Cc1c(C(=O)Nc2ccccc2)cc(-c2ccccc2)n1CCCN1CCOCC1 | 36.8 (≈ 91.2 µM) |
| COc1ccc(NC(=O)N2CCCC(c3ccccc3)C2)cc1 (stereo not given) | 27.8 (≈ 89.6 µM) |
| O=c1[nH]cc(NCCc2ccccc2)c(=O)[nH]1 | > 34.7 |
| O=C(Oc1ccccc1)N1CCN(C(=O)c2ccco2)CC1 | > 45 |
| C/C(=N\NC(=O)c1cccnc1)c1ccccc1 | > 35.9 |
| Cc1cc2c(cc1S(=O)(=O)N1CCOCC1)NC(=O)CO2 | > 46.9 |
| CCCN(CCC)S(=O)(=O)c1ccc(C(=O)O)cc1 | > 42.8 |
